From patent US20220348590A1, “CYCLOOXYGENASE-2 INHIBITORS AND USES THEREOF” (The Board Institute, Inc., priority 2019, published 2022)
pIC50: −log10 of the molar value. Like-named read-outs stand apart in the source and are kept apart here.

Assays:
[1] = target: T1, human recombinant COX2 (hCOX2) (UniProt P35354); assay: LCMS-based COX2 enzymatic inhibition assay (PGE2 quantification); assay type: biochemical; design: COX2 2 minutes pge2/pge2d4 area ratio Avg; other: 2 minutes; readout pge2/pge2d4 area ratio; average; COX2 2 minutes pge2/pge2d4 area ratio Avg; LLE; average LLE; COX2 2 minutes pge2 area (counts) Avg; readout pge2 area (counts); other: 2 min; "ovine COX2 (oCOX2), human recombinant COX2 (hCOX2)"; conditions: for pIC50: average
T1 sequence (P35354 1-604): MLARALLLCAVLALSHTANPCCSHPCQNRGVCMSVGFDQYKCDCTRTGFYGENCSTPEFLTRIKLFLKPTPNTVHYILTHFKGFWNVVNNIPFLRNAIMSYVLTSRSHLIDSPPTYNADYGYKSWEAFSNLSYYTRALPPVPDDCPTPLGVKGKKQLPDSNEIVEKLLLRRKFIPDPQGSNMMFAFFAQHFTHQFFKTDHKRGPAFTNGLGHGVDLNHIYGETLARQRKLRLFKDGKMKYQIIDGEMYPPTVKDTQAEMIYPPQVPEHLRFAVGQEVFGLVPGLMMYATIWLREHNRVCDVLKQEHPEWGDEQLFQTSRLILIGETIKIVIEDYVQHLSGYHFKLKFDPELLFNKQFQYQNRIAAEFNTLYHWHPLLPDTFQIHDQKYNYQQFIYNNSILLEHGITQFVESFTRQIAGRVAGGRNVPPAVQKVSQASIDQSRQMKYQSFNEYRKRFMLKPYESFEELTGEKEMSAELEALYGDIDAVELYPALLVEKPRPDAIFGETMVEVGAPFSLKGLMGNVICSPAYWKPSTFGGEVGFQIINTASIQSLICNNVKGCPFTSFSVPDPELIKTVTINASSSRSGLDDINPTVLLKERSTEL
Procedure, shortened: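 Ovine COX-1 (0.1 μg) or human recombinant COX2 (0.2 μg) in 100 mM Tris.HCl pH 8.0 with hematin and epinephrine, preincubated with inhibitor 10 min at 37 °C. Reaction with 5 μM arachidonic acid stopped after 2 min with HCl; PGE2 quantified by LC-MS-MS. IC50 from 12 concentrations in triplicate.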

ovine COX-1 (oCOX-1) = target: T2, ovine COX-1 (oCOX-1) (Ovis aries, UniProt P05979); assay: LCMS-based COX-1 enzymatic inhibition assay (PGE2 quantification); assay type: biochemical
T2 construct: purchased Cayman Chemicals (Ann Arbor, Mich.)
T2 sequence (P05979 25-600): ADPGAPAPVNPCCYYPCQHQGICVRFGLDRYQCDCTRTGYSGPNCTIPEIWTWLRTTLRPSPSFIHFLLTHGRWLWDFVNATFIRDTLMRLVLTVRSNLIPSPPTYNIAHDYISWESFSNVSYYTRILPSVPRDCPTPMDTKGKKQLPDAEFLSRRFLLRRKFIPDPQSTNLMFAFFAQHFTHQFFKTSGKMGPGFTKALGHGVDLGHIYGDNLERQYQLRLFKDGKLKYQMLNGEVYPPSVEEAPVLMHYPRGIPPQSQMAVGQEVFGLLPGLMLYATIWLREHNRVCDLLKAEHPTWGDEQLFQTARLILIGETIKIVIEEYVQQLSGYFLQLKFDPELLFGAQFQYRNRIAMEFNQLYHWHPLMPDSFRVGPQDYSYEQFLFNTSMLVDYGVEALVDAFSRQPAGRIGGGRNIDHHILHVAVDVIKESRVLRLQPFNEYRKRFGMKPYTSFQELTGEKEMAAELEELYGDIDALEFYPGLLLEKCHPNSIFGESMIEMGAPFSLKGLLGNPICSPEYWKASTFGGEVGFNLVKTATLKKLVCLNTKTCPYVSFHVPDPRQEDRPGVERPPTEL
Experimental: We have adapted a previously reported cyclooxygenase enzymatic assay utilizing LCMS quantification of PGE2 as the product of COX-1 and COX2 catalyzed conversion of arachidonic acid to evaluate the binding properties of newly synthesized ligands [Cao, 2011]. These optimized and miniaturized (384-well plates) LCMS-based COX-1 and COX2 enzymatic assays enabled us to quickly evaluate newly synthesized ligands for COX2 binding affinity and selectivity vs COX-1. Using a shorter ligand-enzyme incubation time in the LCMS assay (2 minutes vs 10 minutes) also permitted us to prioritize ligands with faster binding kinetics. Considering the relatively slow on-rate kinetics of known coxibs, due to their 3-step binding mechanism [Marnett, 2009], we believe that optimizing this critical parameter will be key to the successful development of a COX2 PET tracer. Using these enzymatic assays, we have evaluated>200 newly synthesized ligands against COX2 and >20 ligands against COX-1. Another critical property necessary for a good PET radiotracer is to have low non-specific binding (NSB) to increase the free fraction and maximize the signal to noise ratio. This property can be evaluated using in-vitro protein binding assays, and we have now evaluated>50 newly synthesized ligands in mouse, rat and human plasma protein binding (PPB) assays as well as >15 ligands in a mouse brain protein binding (BPB) assay.
Ovine COX-1 (oCOX-1), ovine COX2 (oCOX2), human recombinant COX2 (hCOX2), arachidonic acid, PGE2, d4-PGD2, and […] (labeled with deuterium atoms at positions 3 and 4) were purchased from Cayman Chemicals (Ann Arbor, Mich.). The cofactors (−)epinephrine and hematin, and the COX inhibitors indomethacin, resveratrol and diclofenac were purchased from Sigma-Aldrich (St. Louis, Mo.). Celecoxib was purchased from 3B PharmaChem International (Wuhan, China). All organic solvents were HPLC grade or better and were purchased from Thermo Fisher (Hanover Park, Ill.). Formic acid was purchased from EMD Chemicals (San Diego, Calif.). Purified water was prepared by using a Millipore Milli-Q purification system (Millipore, Billerica, Mass.). All other chemicals and solvents were ACS reagent grade, unless stated otherwise.
In an Eppendorf tube, 146 μL of 100 mM Tris.HCl (pH 8.0) buffer, 2 μL of 100 μM hematin (co-factor) and 10 μL of 40 mM L-epinephrine (co-factor) were mixed at room temperature. Next, 20 μL of Tris.HCl (pH 8.0) buffer containing 0.2 μg COX2 or 0.1 μg COX-1 (approximately 1 unit of enzyme; 1 unit COX utilizes 1 nmol 02/mg/min at 37° C.) was added, and the solution was incubated at room temperature for 2 min. A 2 μL aliquot of the COX inhibitor in DMSO was added to the enzyme solution and preincubated at 37° C. for 10 min. Negative controls were identical except that 2 μL aliquots of DMSO without inhibitor were used instead.
Each COX reaction was initiated by adding 20 μL of arachidonic acid in Tris.HCl (pH 8.0) buffer to give a final concentration of 5 μM; and the reaction was terminated after 2 min by adding 20 μL of 2.0 M HCl. The surrogate standards d4-PGE2 and d4-PGD2 (10 μL aliquot of 50 ng/mL solution in methanol) were added to correct for errors or degradation during sample handling and for variation in injection volume or instrument response during LC-MS-MS. After 30 min, PGE2, PGD2 and their surrogate standards were extracted from each incubation mixture using 800 μL hexane/ethyl acetate (50:50, v/v). The organic phase was removed, evaporated to dryness, and reconstituted in 100 μL methanol/water (50:50, v/v) for analysis using LC-MS-MS.
The concentration of PGE2 in each sample was measured using LC-MS-MS, and the percent of COX inhibition by each test solution was determined by comparing the amount of PGE2 produced in the experiment with that produced in the negative control incubation. The formation of PGD2 was measured for quality control purposes, since the levels of PGD2 should be proportional to those of PGE2. […]

[2] = 2 minutes, readout pge2/pge2d4 area ratio, average LLE
[3] = 2 minutes, readout pge2/pge2d4 area ratio, read-out: COX2 2 minutes pge2/pge2d4 area ratio Avg. IC50
[4] = 2 minutes, readout pge2 area (counts), average LLE
[5] = 2 minutes, readout pge2 area (counts), read-out: COX2 2 minutes pge2 area (counts) Avg. IC50
[6] = 10 minutes, readout pge2/pge2d4 area ratio, average LLE
[7] = 10 minutes, readout pge2/pge2d4 area ratio, average, read-out: COX1 10 minutes pge2/pge2d4 area ratio Avg. IC50
[8] = 10 minutes, readout pge2 area (counts), average LLE
[9] = 10 minutes, readout pge2 area (counts), average, read-out: COX1 10 minutes pge2 area (counts) Avg. IC50
[10] = 10 minutes, pge2/pge2d4 area ratio, head of this section not shown, inferred
[11] = 10 minutes, pge2 area (counts), head of this section not shown, inferred
[12] = 10 minutes, pge2 area (counts), head of this section not shown, inferred, read-out: COX1 10 minutes pge2 area (counts) Avg. IC50

| Structure (SMILES) | COX2 2 minutes pge2/pge2d4 area ratio Avg. LLE [1, 2] | pIC50 [1, 3] | COX2 2 minutes pge2 area (counts) Avg. LLE [1, 4] | pIC50 [1, 5] | COX1 10 minutes pge2/pge2d4 area ratio Avg. LLE (ovine COX-1 (oCOX-1); [6]) | pIC50 (ovine COX-1 (oCOX-1); [7]) | COX1 10 minutes pge2 area (counts) Avg. LLE (ovine COX-1 (oCOX-1); [8]) | pIC50 (ovine COX-1 (oCOX-1); [9]) | COX2 10 minutes pge2 area (counts) Avg. LLE [1, 8] | pIC50 ([1]; 10 minutes, readout pge2 area (counts), read-out: COX2 10 minutes pge2 area (counts) Avg. IC50) | pIC50 (ovine COX-1 (oCOX-1)) | COX1 10 minutes pge2/pge2d4 area ratio Avg. LLE (ovine COX-1 (oCOX-1); [10]) | COX1 10 minutes pge2 area (counts) Avg. LLE (ovine COX-1 (oCOX-1); [11]) | pIC50 (ovine COX-1 (oCOX-1); [12]) |
| --- | --- | --- | --- | --- | --- | --- | --- | --- | --- | --- | --- | --- | --- | --- |
| COc1ncc(NCc2ccccc2)nc1-c1ccc(S(C)(=O)=O)cc1 [Compound 49] | 5.235 | 7.65 | 5.228 | 7.68 | 1.734 |  | 1.734 |  |  |  | 4.28 |  |  |  |
| CS(=O)(=O)c1ccc(-n2ccc3ccc(NCc4cccs4)nc32)cc1 [Compound 57] | 3.1281 | 7.51 | 3.132 | 7.53 |  |  |  |  |  |  | 4.28 | −0.196 | −0.1826 | 4.30 |
| COc1ncc(NCc2cccs2)nc1-c1ccc(S(C)(=O)=O)nc1 [Compound 60] | 5.902 | 7.49 | 5.891 | 7.48 |  |  |  |  |  |  | 4.28 | 2.694 | 2.694 |  |
| CS(=O)(=O)c1ccc(-c2ccc3ccn(Cc4ccco4)c3n2)cc1 [Compound 61] | 3.446 | 7.48 | 3.403 | 7.43 |  |  |  |  |  |  | 4.28 | 0.214 | 0.214 |  |

The next lines start with results.

| COX2 2 minutes pge2/pge2d4 area ratio Avg. LLE [1, 2] | pIC50 [1, 3] | COX2 2 minutes pge2 area (counts) Avg. LLE [1, 4] | pIC50 [1, 5] | COX1 10 minutes pge2/pge2d4 area ratio Avg. LLE (ovine COX-1 (oCOX-1); [6]) | pIC50 (ovine COX-1 (oCOX-1); [7]) | COX1 10 minutes pge2 area (counts) Avg. LLE (ovine COX-1 (oCOX-1); [8]) | pIC50 (ovine COX-1 (oCOX-1); [9]) | COX2 10 minutes pge2 area (counts) Avg. LLE [1, 8] | pIC50 ([1]; 10 minutes, readout pge2 area (counts), read-out: COX2 10 minutes pge2 area (counts) Avg. IC50) | Structure (SMILES) | pIC50 (ovine COX-1 (oCOX-1)) | COX1 10 minutes pge2/pge2d4 area ratio Avg. LLE (ovine COX-1 (oCOX-1); [10]) | COX1 10 minutes pge2 area (counts) Avg. LLE (ovine COX-1 (oCOX-1); [11]) | pIC50 (ovine COX-1 (oCOX-1); [12]) |
| --- | --- | --- | --- | --- | --- | --- | --- | --- | --- | --- | --- | --- | --- | --- |
| 3.877 | 7.70 | 3.805 | 7.64 | 1.328 | 5.18 | 1.301 | 5.15 |  |  | CS(=O)(=O)c1ccc(-c2ccc(F)c(OCc3cccs3)n2)cc1 [Compound 45] |  |  |  |  |
| 4.377 | 7.62 | 4.612 | 7.88 | 1.0149 | 4.28 | 1.014 |  |  |  | CN(Cc1ccoc1)c1cccc(-c2ccc(S(C)(=O)=O)cc2)n1 [Compound 52] |  |  |  |  |
| 3.727 | 7.59 | 3.7767 | 7.62 | 0.5171 | 4.41 | 0.394 | 4.28 | 4.182 | 8.03 | COc1cc(-c2ccc(S(C)(=O)=O)cc2)cc(NCc2cccs2)n1 [Compound 54] |  |  |  |  |
| 5.691 | 7.51 | 5.691 | 7.51 |  | 4.46 |  |  |  |  | CS(=O)(=O)c1ccc(-c2cncc(OCc3ccoc3)n2)cc1 [Compound 58] |  | 2.5036 | 2.324 |  |
| 3.897 | 7.45 | 3.961 | 7.57 |  | 5.70 |  |  |  |  | CS(=O)(=O)c1ccc(-c2ccc3cnn(Cc4cccs4)c3n2)cc1 [Compound 63] |  | 2.0906 | 2.128 | 5.74 |
